Test results taken from patent US7410980B2, “Crystals of taxane derivative and process for their production” (Daiichi Pharmaceutical Co., Ltd., priority 2001, dated 2008).

Experiment: moisture absorption behavior (microbalance, automatic moisture adsorption apparatus)
Assay type: physicochemical
Method: Moisture absorption behaviors of the crystals of the present invention (β crystals) and an amorphous substance were measured under relative humidity of from 30 to 90%. Each sample of about 20 mg was used and the relative humidity was changed from 30% with 10% pitch by using a microbalance (automatic moisture adsorption apparatus). The measurement temperature was 25° C. An amount of the change was determined when the sample gave the change of 0.03% or less for 30 minutes (maximum retention time: 180 minutes).

Structure (SMILES)	additional moisture absorbed as compared to the crystals of the present invention (β crystals) (under high humidity, relative humidity 30 to 90%, 25° C., about 20 mg sample)	hygroscopicity (compared with amorphous substance, as shown in the examples)
CC(=O)O[C@@]12CO[C@@H]1CC[C@@]1(C)[C@@H]3O[C@H](CN(C)C)O[C@@H]3C3=C(C)[C@@H](OC(=O)[C@H](O)[C@@H](NC(=O)OC(C)(C)C)c4ncccc4F)C[C@@](O)([C@@H](OC(=O)c4ccccc4)[C@@H]12)C3(C)C [amorphous substance, (1S,2S,3R,4S,5R,8R,9S,10R,13S)-4-acetoxy-2-benzoyloxy-9,10-[(1S)-2-(dimethylamino)ethylidenedioxy]-5,20-epoxy-1-hydroxytax-11-en-13-yl (2R,3S)-3-(tert-butoxycarbonylamino)-3-(3-fluoro-2-pyridyl)-2-hydroxypropionate]	about 1%	–
CC(=O)O[C@@]12CO[C@@H]1CC[C@@]1(C)[C@@H]3O[C@H](CN(C)C)O[C@@H]3C3=C(C)[C@@H](OC(=O)[C@H](O)[C@@H](NC(=O)OC(C)(C)C)c4ncccc4F)C[C@@](O)([C@@H](OC(=O)c4ccccc4)[C@@H]12)C3(C)C [β crystals, (1S,2S,3R,4S,5R,8R,9S,10R,13S)-4-acetoxy-2-benzoyloxy-9,10-[(1S)-2-(dimethylamino)ethylidenedioxy]-5,20-epoxy-1-hydroxytax-11-en-13-yl (2R,3S)-3-(tert-butoxycarbonylamino)-3-(3-fluoro-2-pyridyl)-2-hydroxypropionate]	–	lower than that of an amorphous substance
